The compounds below were run on barnyardgrass (Echinochloa crus-galli) (assay: Test A pre-/postemergence greenhouse herbicide test, visual injury rating 0-100). Conditions: Postemergence, 125 g ai/ha.
Type: in vivo
Source text: (§1) Seeds of plant species selected from barnyardgrass (Echinochloa crus-galli), large (Lg) crabgrass (Digitaria sanguinalis), giant foxtail (Setaria faberii), morningglory (Ipomoea spp.), pigweed (Amaranthus retroflexus), velvetleaf (Abutilon theophrasti), wheat (Triticum aestivum), and corn (Zea mays) were planted into a blend of loam soil and sand and treated preemergence with a directed soil spray using test chemicals formulated in a non-phytotoxic solvent mixture which included a surfactant. At the same time these species were also treated with postemergence applications of test chemicals formulated in the same manner. Plants ranged in height from 2 to 10 cm and were in the one- to two-leaf stage for the postemergence treatment. Treated plants and untreated controls were maintained in a greenhouse for approximately 10 days, after which time all treated plants were compared to untreated controls and visually evaluated for injury. Plant response ratings, summarized in Table A, are based on a 0 to 100 scale where 0 is no effect and 100 is complete control. A dash (-) response means no test result.

Q: How did the “Plant response rating (0 to 100 scale), Barnyardgrass” value turn out when `CON=C(c1cccs1)c1c[nH]nc1-c1cc(Cl)cc(Cl)c1` [Compound 32] was run?
A: 0

Same assay, conditions: Postemergence, 500 g ai/ha

Q: For `CON=C(c1cccs1)c1c[nH]nc1-c1cc(Cl)cc(Cl)c1` [Compound 32], which “Plant response rating (0 to 100 scale), Barnyardgrass” value is on record?
A: 0

Same assay, conditions: Preemergence, 125 g ai/ha

Q: With `CON=C(c1cccs1)c1c[nH]nc1-c1cc(Cl)cc(Cl)c1` [Compound 32] as the compound, how does the “Barnyardgrass plant response rating (0 = no effect, 100 = complete control)” value read?
A: 0

Same assay, conditions: Preemergence, 500 g ai/ha

Q: With `CON=C(c1cccs1)c1c[nH]nc1-c1cc(Cl)cc(Cl)c1` [Compound 32] as the compound, how does the “Plant response rating (0 to 100 scale), Barnyardgrass” value read?
A: 0

The compounds below were run on corn (Zea mays) in the same assay as above. Conditions: Postemergence, 125 g ai/ha.
Type: in vivo
Source text: as §1

Q: How did the “Plant response rating (0 to 100 scale), Corn” value turn out when `CON=C(c1cccs1)c1c[nH]nc1-c1cc(Cl)cc(Cl)c1` [Compound 32] was run?
A: 0

Same assay, conditions: Postemergence, 500 g ai/ha

Q: `CON=C(c1cccs1)c1c[nH]nc1-c1cc(Cl)cc(Cl)c1` [Compound 32] was tested. Which “Plant response rating (0 to 100 scale), Corn” value did it give?
A: 0

Same assay, conditions: Preemergence, 125 g ai/ha

Q: How did the “Corn plant response rating (0 = no effect, 100 = complete control)” value turn out when `CON=C(c1cccs1)c1c[nH]nc1-c1cc(Cl)cc(Cl)c1` [Compound 32] was run?
A: 0

Same assay, conditions: Preemergence, 500 g ai/ha

Q: For `CON=C(c1cccs1)c1c[nH]nc1-c1cc(Cl)cc(Cl)c1` [Compound 32], which “Plant response rating (0 to 100 scale), Corn” value is on record?
A: 0

The compounds below were run on giant foxtail (Setaria faberii) in the same assay as above. Conditions: Postemergence, 125 g ai/ha.
Type: in vivo
Source text: as §1

Q: For `CON=C(c1cccs1)c1c[nH]nc1-c1cc(Cl)cc(Cl)c1` [Compound 32], which “Plant response rating (0 to 100 scale), Foxtail, Giant” value is on record?
A: 0

Same assay, conditions: Postemergence, 500 g ai/ha

Q: For `CON=C(c1cccs1)c1c[nH]nc1-c1cc(Cl)cc(Cl)c1` [Compound 32], which “Plant response rating (0 to 100 scale), Foxtail, Giant” value is on record?
A: 0

Same assay, conditions: Preemergence, 125 g ai/ha

Q: With `CON=C(c1cccs1)c1c[nH]nc1-c1cc(Cl)cc(Cl)c1` [Compound 32] as the compound, how does the “Foxtail, Giant plant response rating (0 = no effect, 100 = complete control)” value read?
A: 0

Same assay, conditions: Preemergence, 500 g ai/ha

Q: For `CON=C(c1cccs1)c1c[nH]nc1-c1cc(Cl)cc(Cl)c1` [Compound 32], which “Plant response rating (0 to 100 scale), Foxtail, Giant” value is on record?
A: 0

The compounds below were run on large (Lg) crabgrass (Digitaria sanguinalis) in the same assay as above. Conditions: Postemergence, 125 g ai/ha.
Type: in vivo
Source text: as §1

Q: For `CON=C(c1cccs1)c1c[nH]nc1-c1cc(Cl)cc(Cl)c1` [Compound 32], which “Plant response rating (0 to 100 scale), Crabgrass, Large” value is on record?
A: 0

Same assay, conditions: Postemergence, 500 g ai/ha

Q: With `CON=C(c1cccs1)c1c[nH]nc1-c1cc(Cl)cc(Cl)c1` [Compound 32] as the compound, how does the “Plant response rating (0 to 100 scale), Crabgrass, Large” value read?
A: 0

Same assay, conditions: Preemergence, 125 g ai/ha

Q: For `CON=C(c1cccs1)c1c[nH]nc1-c1cc(Cl)cc(Cl)c1` [Compound 32], which “Crabgrass, Large plant response rating (0 = no effect, 100 = complete control)” value is on record?
A: 0

Same assay, conditions: Preemergence, 500 g ai/ha

Q: With `CON=C(c1cccs1)c1c[nH]nc1-c1cc(Cl)cc(Cl)c1` [Compound 32] as the compound, how does the “Plant response rating (0 to 100 scale), Crabgrass, Large” value read?
A: 0

Each compound was assayed on morningglory (Ipomoea spp.) in the same assay as above. Conditions: Postemergence, 125 g ai/ha.
Type: in vivo
Source text: as §1

Q: For `CON=C(c1cccs1)c1c[nH]nc1-c1cc(Cl)cc(Cl)c1` [Compound 32], which “Plant response rating (0 to 100 scale), Morningglory” value is on record?
A: 0

Same assay, conditions: Postemergence, 500 g ai/ha

Q: Which “Plant response rating (0 to 100 scale), Morningglory” value does the source give for `CON=C(c1cccs1)c1c[nH]nc1-c1cc(Cl)cc(Cl)c1` [Compound 32] here?
A: 0

Same assay, conditions: Preemergence, 125 g ai/ha

Q: For `CON=C(c1cccs1)c1c[nH]nc1-c1cc(Cl)cc(Cl)c1` [Compound 32], which “Morningglory plant response rating (0 = no effect, 100 = complete control)” value is on record?
A: 0

Same assay, conditions: Preemergence, 500 g ai/ha

Q: `CON=C(c1cccs1)c1c[nH]nc1-c1cc(Cl)cc(Cl)c1` [Compound 32] was tested. Which “Plant response rating (0 to 100 scale), Morningglory” value did it give?
A: 0

These compounds were tested on pigweed (Amaranthus retroflexus) in the same assay as above. Conditions: Postemergence, 125 g ai/ha.
Type: in vivo
Source text: as §1

Q: With `CON=C(c1cccs1)c1c[nH]nc1-c1cc(Cl)cc(Cl)c1` [Compound 32] as the compound, how does the “Plant response rating (0 to 100 scale), Pigweed” value read?
A: 0

Same assay, conditions: Postemergence, 500 g ai/ha

Q: With `CON=C(c1cccs1)c1c[nH]nc1-c1cc(Cl)cc(Cl)c1` [Compound 32] as the compound, how does the “Plant response rating (0 to 100 scale), Pigweed” value read?
A: 60

Same assay, conditions: Preemergence, 125 g ai/ha

Q: For `CON=C(c1cccs1)c1c[nH]nc1-c1cc(Cl)cc(Cl)c1` [Compound 32], which “Pigweed plant response rating (0 = no effect, 100 = complete control)” value is on record?
A: 0

Each compound was assayed on velvetleaf (Abutilon theophrasti) in the same assay as above. Conditions: Postemergence, 125 g ai/ha.
Type: in vivo
Source text: as §1

Q: How did the “Plant response rating (0 to 100 scale), Velvetleaf” value turn out when `CON=C(c1cccs1)c1c[nH]nc1-c1cc(Cl)cc(Cl)c1` [Compound 32] was run?
A: 60

Same assay, conditions: Postemergence, 500 g ai/ha

Q: Which “Plant response rating (0 to 100 scale), Velvetleaf” value does the source give for `CON=C(c1cccs1)c1c[nH]nc1-c1cc(Cl)cc(Cl)c1` [Compound 32] here?
A: 70

Same assay, conditions: Preemergence, 125 g ai/ha

Q: For `CON=C(c1cccs1)c1c[nH]nc1-c1cc(Cl)cc(Cl)c1` [Compound 32], which “Velvetleaf plant response rating (0 = no effect, 100 = complete control)” value is on record?
A: 0

Same assay, conditions: Preemergence, 500 g ai/ha

Q: For `CON=C(c1cccs1)c1c[nH]nc1-c1cc(Cl)cc(Cl)c1` [Compound 32], which “Plant response rating (0 to 100 scale), Velvetleaf” value is on record?
A: 0

Each compound was assayed on wheat (Triticum aestivum) in the same assay as above. Conditions: Postemergence, 125 g ai/ha.
Type: in vivo
Source text: as §1

Q: For `CON=C(c1cccs1)c1c[nH]nc1-c1cc(Cl)cc(Cl)c1` [Compound 32], which “Plant response rating (0 to 100 scale), Wheat” value is on record?
A: 0

Same assay, conditions: Postemergence, 500 g ai/ha

Q: With `CON=C(c1cccs1)c1c[nH]nc1-c1cc(Cl)cc(Cl)c1` [Compound 32] as the compound, how does the “Plant response rating (0 to 100 scale), Wheat” value read?
A: 0

Same assay, conditions: Preemergence, 125 g ai/ha

Q: For `CON=C(c1cccs1)c1c[nH]nc1-c1cc(Cl)cc(Cl)c1` [Compound 32], which “Wheat plant response rating (0 = no effect, 100 = complete control)” value is on record?
A: 0

Same assay, conditions: Preemergence, 500 g ai/ha

Q: Which “Plant response rating (0 to 100 scale), Wheat” value does the source give for `CON=C(c1cccs1)c1c[nH]nc1-c1cc(Cl)cc(Cl)c1` [Compound 32] here?
A: 0

Source: patent publication US10167262B2, “Herbicidal substituted 3-arylpyrazoles” (FMC CORPORATION, priority 2014, dated 2019)
